Data: patent publication US20250176602A1, “Composition for Proliferation of Bacteroides uniformis in the Intestinal Tract” (Asahi Group Holdings, Ltd., priority 2019, published 2025)

How the values were obtained:
[1] = Suppression of increase in heart rate during exercise, Aerobike exercise loading test (Example 4); format: in vivo, human; settings: about 1000 mg/day
Experimental: (§1) As the test subjects, 86 healthy males at the ages of 20 to 49 who have exercise habits of conducting exercise with an intensity of 5 METs or more for 30 minutes or more once or twice a week and who can continue the exercise habits during the test period as well were selected.
(§2) Among the 86 test subjects, 43 test subjects were selected as an α-cyclodextrin (αCD) intake group, and the remaining 43 test subjects were selected as a placebo group. The test subjects themselves were not informed who belonged to which group.
(§3) Test Supplements (tablets) having compositions described in Table 4 below were used. One tablet of the test supplements was of about 600 mg.
(§4) Each test subject of the αCD intake group and the placebo group was asked to take in 4 tablets of the above test supplements once a day at any timing. That is, each test subject of the α-cyclodextrin intake group was asked to take in about 1000 mg of α-cyclodextrin per day.
(§5) The intake period for the test supplements was set to 8 weeks, and the heart rate during exercise was measured, before the start of the intake, after 4-week intake, and after 8-week intake to evaluate change in heart rate. In addition, a questionnaire on fatigue feeling was conducted before the start of the intake of the test supplements and after 8-week intake, and change in travel time was evaluated. […]

[2] = Exercise performance test, 10 km SPIN CYCLE travel time (Example 6); format: in vivo, human; settings: after 8-week intake, about 1000 mg/day; p<0.05
Experimental: as §1, §2, §3, §4, §5

[3] = tested on: Bacteroides, Bifidobacterium, and Lactobacillus; settings: obese mice given high-fat diets, fed α-cyclodextrin; cited from earlier work
Bacteroides uniformis = experiment: Proliferation of Bacteroides uniformis in the intestinal tract, quantification PCR of feces (Example 1); format: in vivo, human; settings: about 200 mg α-cyclodextrin per day, oral tablets; 8w vs 0w; p<0.05
Experimental: As test subjects, 21 healthy males at the ages of 20 to 49 who have exercise habits of conducting exercise with an intensity of 5 METs or more for 30 minutes or more once or twice a week and who can continue the exercise habits during the test period as well were selected. Among the 21 test subjects, 10 test subjects were selected as an α-cyclodextrin (αCD) intake group, and the remaining 11 test subjects were selected as a placebo group. The test subjects themselves were not informed who belonged to which group. Test Supplements (tablets) having compositions described in Table 1 below were used. One tablet of the test supplements was of about 250 mg. […] The intake period for the test supplements was set to 9 weeks, and change in gut flora was evaluated, a questionnaire on fatigue feeling was conducted, and change in travel time was evaluated, before the start of the intake, after 4-week intake, and after 8-week intake. […] DNA was extracted from the collected feces by a conventional method, and the absolute number of Bacteroides uniformis in the intestinal tract was evaluated by conducting quantification PCR (probe method) with a conventional method using a forward primer, a reverse primer, and a probe targeting a sequence specific to the 16Sr DNA sequence region of Bacteroides uniformis with reference to the description of Anaerobe (2011), 17, 64-68, Jia Tong et al.

OC[C@H]1O[C@@H]2O[C@H]3[C@H](O)[C@@H](O)[C@@H](O[C@H]4[C@H](O)[C@@H](O)[C@@H](O[C@H]5[C@H](O)[C@@H](O)[C@@H](O[C@H]6[C@H](O)[C@@H](O)[C@@H](O[C@H]7[C@H](O)[C@@H](O)[C@@H](O[C@H]1[C@H](O)[C@H]2O)O[C@@H]7CO)O[C@@H]6CO)O[C@@H]5CO)O[C@@H]4CO)O[C@@H]3CO [α-cyclodextrin]
average heart rate for 10 minutes immediately before the end of exercise (Δ value vs before intake), compared with placebo group ([1]; after 4-week intake, tendency): lower | average heart rate for 10 minutes immediately before the end of exercise (Δ value vs before intake), compared with placebo group ([1]; after 8-week intake, p<0.05): significantly lower | travel time for 10 km, change vs before intake, compared with placebo group [2]: significantly less | accumulation of fat [3]: reductions in accumulation of fat | total bacterial cell numbers of Bacteroides, Bifidobacterium, and Lactobacillus in the intestinal tracts [3]: suppress decreases | bacterial cell number of Bacteroides uniformis in the intestinal tract, after 8-week intake as compared with before intake (Bacteroides uniformis): about 2.5 times
